Results on 21 molecules are retold here after paper PMC5983823, “Screening of Natural Product Derivatives Identifies Two Structurally Related Flavonoids as Potent Quorum Sensing Inhibitors against Gram-Negative Bacteria” (International Journal of Molecular Sciences, 2018).

Test [1] has as its system C. violaceum ATCC 31532. As to the kind of experiment: Violacein extraction assay (QS-mediated violacein production). The format is cell-based, Chromobacterium violaceum. The conditions noted are these: for inhibition at 400 µM: ATCC31532, 24 h, read-out: Inhibition-% of violacein production. As to the method: (§1) The initial screening of compound library was conducted using two strains of C. violaceum as model bacterium, and two assays (violacein extraction and resazurin staining) in parallel as recently optimized in [26]. For the screening assays, overnight cultures of C. violaceum were diluted in LB broth supplemented with yeast extract (LBY) (0.1% w/v, Sigma Aldrich, St. Louis, MO, USA). Culture of C. violaceum CV026 was further supplemented with 0.5 µM N-(β-ketocaproyl)-L-Homoserine lactone (3-O-C6-(L)-HSL, Cayman chemicals, Ann Arbor, MI, USA) to induce the violacein production. Bacteria (10^6 CFU/mL) was exposed to compounds (400 µM) in a total volume of 200 µL in 96-microtiter well plates (Nunc, Roskilde, Denmark), and incubated at 27 °C, with shaking at 200 rpm for 24 h. DMSO was added in untreated control wells and bacteria-free wells with only LBY were included controls. Additionally, autoinducer-free wells containing only bacteria were included in C. violaceum CV026 plates. Plates were prepared in duplicates. Quercetin dihydrate (Carl Roth GmbH, Karlsruhe, Germany) at 400 µM was used as positive control in violacein extraction assay, and azithromycin (Cayman chemicals, Ann Arbor, MI, USA) at 10 µM in viability assay. Both control compounds were prepared in DMSO. DMSO concentration was 2.5% throughout the experiments.
(§2) After incubation period of 24 h, plates were centrifuged (Allegra™ X-12R Benchtop centrifuge, Beckman Coulter Inc., Fullerton, CA, USA) at 3000 rpm for 10 min to precipitate the violacein. Supernatants were discarded from the wells by pipetting, and pellets were re-suspended in 200 μL of 96% ethanol by scraping and mixing followed by centrifugation (3000 rpm, 10 min). Thereafter, 100 μL of supernatants were transferred to sterile 96-microtiter well plates, and violacein was quantified by reading the optical density at 595 nm using Varioskan Flash. Inhibition of violacein production was expressed as inhibition percentages of the untreated biofilms (Equation (1)):Inhibition-% = [(untreated control OD595 − sample OD595)/(untreated control OD595 − media control OD595)] × 100%(1) in which untreated control = C. violaceum + DMSO, media control = LBY, and sample = C. violaceum treated with a compound. Later on, violacein extraction assay was also utilized for the determination of half inhibitory concentrations of the compounds.

A further test relates to C. violaceum CV026. As to the kind of experiment: Violacein extraction assay (QS-mediated violacein production), mutant strain with exogenous autoinducer. The test is classed as cell-based, Chromobacterium violaceum. To be noted: for inhibition at 400 µM: Chromobacterium violaceum, CV026, 24 h, read-out: Inhibition-% of violacein production. As to the method: as §1, §2
For test [2], the system named is C. violaceum ATCC 31532. The experiment in a line: Violacein extraction assay (QS-mediated violacein production). The test is classed as cell-based. To be noted: Chromobacterium violaceum.
The mark [3] stands for this setting: Chromobacterium violaceum, primary screening, 400 µM, 24 h, C. violaceum ATCC 31532.
[4] abbreviates: ATCC31532, 40 µM, C. violaceum ATCC 31532, mean ± SD of three independent tests, read-out: Inhibition-% of violacein production.
[5] abbreviates: ATCC31532, read-out: Inhibition-% of violacein production.

Molecules are shown by their SMILES. Where two headings read alike, the source gives them in different places.

As to `O=C(CSc1nc2c(=O)[nH]cnc2n1CC1CCCO1)Nc1ccc(F)c(Cl)c1` (stereo not drawn) [Compound 1905, N-(3-chloro-4-fluorophenyl)-2-[6-oxo-9-(oxolan-2-ylmethyl)hydropurin-8-ylthio] acetamide], the results for the inhibition at 400 µM in the test with C. violaceum ATCC 31532 [1] (setting [3]) and in the test on C. violaceum CV026 were 4.7% and 107%, respectively.
As to `O=C(NCCCCCCNC(=O)/C(=C\c1ccccc1)NC(=O)c1ccccc1)/C(=C/c1ccccc1)NC(=O)c1ccccc1` [Compound 3, (2E)-N-{6-[(2Z)-3-phenyl-2-(phenylcarbonylamino)prop-2-enoylamino]hexyl}-3-phenyl-2-(phenylcarbonylamino)prop-2-enamide], the figures for the inhibition at 400 µM in the test with C. violaceum ATCC 31532 [1] (setting [3]) and in the test with C. violaceum CV026 were 41% and 41.3%, respectively.
Regarding `O=c1cc(C(Cl)(Cl)Cl)oc2ccccc12` [Compound 2712, 2-(trichloromethyl)chromen-4-one], the inhibition at 400 µM with C. violaceum CV026 turned out to be 106%.
As to `COc1ccc(/C=C/C(=O)c2ccc(O)cc2C)cc1` [Compound 2372, (2E)-1-(4-hydroxy-2-methylphenyl)-3-(4-methoxyphenyl)prop-2-en-1-one], the figures for the inhibition at 400 µM in the test on C. violaceum ATCC 31532 [1] (setting [3]) and in the test with C. violaceum CV026 were 18.3% and 91.1%, respectively.
The like results for `Cc1ccc2c(C)c(-c3ccc(Cl)cc3)c(=O)oc2c1` [Compound 1352] were, in that order, 18.8% and 99.6%.
As to `COc1cc([C@H]2OC[C@@H]3C(c4ccc(OC5OC(COC6OC(C)C(O)C(O)C6O)C(O)C(O)C5O)c(OC)c4)OC[C@H]23)ccc1O` (stereo partly drawn) [Compound 1698, 2-[(6-{4-[(6S,1R,5R)-6-(4-hydroxy-3-methoxyphenyl)-3,7-dioxabicyclo[3.3.0]oct-2-yl]-2-methoxyphenoxy}-3,4,5-trihydroxy(2H-3,4,5,6-tetrahydropyran-2-yl))methoxy]-6-methyl-2H-3,4,5,6-tetrahydropyran-3,4,5-triol], the inhibition at 400 µM in the test with C. violaceum ATCC 31532 [1] (setting [3]) worked out at 91.3%; in the test with C. violaceum CV026, 96.1%. Also, the inhibition at 40 µM in the test on C. violaceum ATCC 31532 [2] (setting [4]) amounted to 2.6 ± 4.6%.
For `Cc1sc(N)nc1-c1c[nH]c2ccccc12` [Compound 2307, 4-indol-3-yl-5-methyl-1,3-thiazole-2-ylamine] the same measures were 98.8%, 98.6% and 76.1 ± 3.3%.
`CCn1cnc2cc(NC(=O)c3cc(OC)c(OC)c(OC)c3)ccc2c1=O` [Compound 1508, N-(3-ethyl-4-oxo(3-hydroquinazolin-7-yl))(3,4,5-trimethoxyphenyl)carboxamide]: in the test on C. violaceum CV026, the inhibition at 400 µM turned out to be 93.4%.
As to `CC(C)COc1ccc(C(=O)N/C(=C\c2ccccc2)C(=O)NCCNC(=O)/C(=C\c2ccccc2)NC(=O)c2ccc(OCC(C)C)cc2)cc1` [Compound 2, (2E)-N-[2-((2Z)-2-{[4-(2-methylpropoxy)phenyl]carbonylamino}-3-phenylprop-2-enoylamino)ethyl]-2-{[4-(2-methylpropoxy)phenyl]carbonylamino}-3-phenylprop-2-en amide], the inhibition at 400 µM in the test on C. violaceum ATCC 31532 [1] (setting [3]) is 19%.
For `COc1ccccc1-c1c(C(F)(F)F)oc2cc(OC(=O)c3ccccc3F)ccc2c1=O` [Compound 2909, 3-(2-methoxyphenyl)-4-oxo-2-(trifluoromethyl)chromen-7-yl 2-fluorobenzoate], the results for the inhibition at 400 µM in the test with C. violaceum ATCC 31532 [1] (setting [3]) and with C. violaceum CV026 were 12.1% and 99.9%, respectively.
Regarding `CCOc1ccc(C2NCCc3c2[nH]c2ccccc32)cc1` (stereo not drawn) [Compound 2666, 4-ethoxy-1-(1,2,3,4-tetrahydrobeta-carbolinyl)benzene], the inhibition at 400 µM in the test with C. violaceum CV026 amounted to 90.8%.
Turning to `O=C(CCc1cccc(F)c1)NC(CO)C(O)c1ccccc1` (stereo not drawn) [Compound 2916, 3-(3-fluorophenyl)-N-[2-hydroxy-1-(hydroxymethyl)-2-phenylethyl]propanamide], the inhibition at 400 µM was determined as 19.7% with C. violaceum ATCC 31532 [1] (setting [3]) and 98.3% in the test with C. violaceum CV026.
Turning to `CCN(CC)C(=O)c1cc(=O)n(CC(=O)Nc2c(C)cc(C)cc2C)c2ccccc12` [Compound 1406, 2-[4-(N,N-diethylcarbamoyl)-2-oxohydroquinolyl]-N-(2,4,6-trimethylphenyl)acetamide], the inhibition at 400 µM in the test with C. violaceum ATCC 31532 [1] (setting [3]) is 40%; in the test on C. violaceum CV026, 93.3%.
Consider `C1COCCN1.COC(=O)C1=C(C)NC(S)=C(C#N)C1c1cc(OC)c(OC)c(OC)c1` (stereo not drawn) [Compound 1016, methyl 5-cyano-2-methyl-6-sulfanyl-4-(3,4,5-trimethoxyphenyl)-1,4-dihydropyridine-3-carboxylate, morpholine], for which the “Inhibition-% of violacein production” value came out at 34.1% in the test on C. violaceum ATCC 31532 [1] (primary screening, 400 µM, 24 h, C. violaceum ATCC 31532) and 97.5% with C. violaceum CV026 (primary screening, 400 µM, 24 h, C. violaceum CV026).
For the molecule `Nc1ccn(C2OC(CO)C3OP(=O)(O)OC32)c(=O)n1` (stereo not drawn) [Compound 144, 8-(4-amino-2-oxohydropyrimidinyl)-3-hydroxy-6-(hydroxymethyl)-2,4,7-trioxa-3-phosphabicyclo[3.3.0]octan-3-one], the inhibition at 400 µM was 94.7% in the test on C. violaceum ATCC 31532 [1] (setting [3]) and 97.2% with C. violaceum CV026. For the same molecule, the inhibition at 40 µM in the test with C. violaceum ATCC 31532 [2] (setting [4]) was 0%.
Turning to `NC(=O)CC1CCCCN1` (stereo not drawn) [Compound 2584, 2-(2-piperidyl)acetamide], the inhibition at 400 µM in the test on C. violaceum ATCC 31532 [1] (setting [3]) was found to be 20.5%; in the test on C. violaceum CV026, 106%.
With `COc1ccc2c(c1)c(CC(=O)NCCCN1CCCCC1)c(C)n2C(=O)c1ccc(Cl)cc1` [Compound 712, 2-{1-[(4-chlorophenyl)carbonyl]-5-methoxy-2-methylindol-3-yl}-N-(3-piperidylpropyl)acetamide], the inhibition at 400 µM in the test on C. violaceum CV026 came out at 94.3%.
For the molecule `C=C(CBr)C1Cc2c(ccc3c2OC2COc4cc(OC)c(OC)cc4C2C3=O)O1` (stereo not drawn) [Compound 341, 2-[1-(bromomethyl)vinyl]-8,9-dimethoxy-1,2-dihydrochromano[3,4-b]furano[2,3-h]chroman-6-one], the inhibition at 400 µM is 93.4% with C. violaceum ATCC 31532 [1] (Chromobacterium violaceum) and 95.2% with C. violaceum CV026. The inhibition at 40 µM with C. violaceum ATCC 31532 [2] (setting [5]) is 26.9 ± 7.7%.
Turning to `Cc1cc(C(=O)NC(Cc2ccccc2)C(=O)O)c(C)o1` (stereo not drawn) [Compound 1214, 2-[(2,5-dimethyl(3-furyl))carbonylamino]-3-phenylpropanoic acid], in the test on C. violaceum CV026, the inhibition at 400 µM was 103%.
In the case of `O=c1c(O)c(-c2ccc(O)c(O)c2)oc2cc(O)cc(O)c12` [Que, quercetin, reference compound], the inhibition at 400 µM in the test on C. violaceum ATCC 31532 [1] (Chromobacterium violaceum) stood at 99.7%; in the test on C. violaceum CV026, 98.9%. Further, the half-inhibitory concentration (IC50) with C. violaceum ATCC 31532 [1] (Chromobacterium violaceum, ATCC31532, read-out: IC50 of violacein production) is 3.1 µM. Besides, the inhibition at 40 µM in the test with C. violaceum ATCC 31532 [2] (setting [5]) turned out to be 91.8 ± 2.3%.
For the molecule `CCOc1ccc2oc(=O)cc(CN3CCNCC3)c2c1` [Compound 1852, 6-ethoxy-4-(piperazinylmethyl)chromen-2-one], the values for the inhibition at 400 µM in the test with C. violaceum ATCC 31532 [1] (setting [3]) and in the test with C. violaceum CV026 were 29.7% and 95.2%, respectively.
